Earlier results in patent US10463641B2, “Method for using small molecule compounds to induce human tumor cells to be directly reprogrammed into non-oncogenic cells” (Transcend Cytotherapy Co., Ltd, priority 2015, dated 2019).
Each block holds one compound with its values, some of them ahead of it.

Legend:
GSK-3β = GSK-3β (Homo sapiens, UniProt P49841); settings: vs CDC2, ERK2 and other kinases
ALK2 = ALK2 (Homo sapiens, UniProt Q04771); settings: DMH1
[1] = tested on: AMPK, ALK5, KDR (VEGFR-2) and PDGFR
[2] = tested on: TGF-β type II receptor and activin type II receptor
BMP type II receptor = target: T1, BMP type II receptor (Homo sapiens, UniProt Q13873)
T1 sequence (Q13873 27-1038): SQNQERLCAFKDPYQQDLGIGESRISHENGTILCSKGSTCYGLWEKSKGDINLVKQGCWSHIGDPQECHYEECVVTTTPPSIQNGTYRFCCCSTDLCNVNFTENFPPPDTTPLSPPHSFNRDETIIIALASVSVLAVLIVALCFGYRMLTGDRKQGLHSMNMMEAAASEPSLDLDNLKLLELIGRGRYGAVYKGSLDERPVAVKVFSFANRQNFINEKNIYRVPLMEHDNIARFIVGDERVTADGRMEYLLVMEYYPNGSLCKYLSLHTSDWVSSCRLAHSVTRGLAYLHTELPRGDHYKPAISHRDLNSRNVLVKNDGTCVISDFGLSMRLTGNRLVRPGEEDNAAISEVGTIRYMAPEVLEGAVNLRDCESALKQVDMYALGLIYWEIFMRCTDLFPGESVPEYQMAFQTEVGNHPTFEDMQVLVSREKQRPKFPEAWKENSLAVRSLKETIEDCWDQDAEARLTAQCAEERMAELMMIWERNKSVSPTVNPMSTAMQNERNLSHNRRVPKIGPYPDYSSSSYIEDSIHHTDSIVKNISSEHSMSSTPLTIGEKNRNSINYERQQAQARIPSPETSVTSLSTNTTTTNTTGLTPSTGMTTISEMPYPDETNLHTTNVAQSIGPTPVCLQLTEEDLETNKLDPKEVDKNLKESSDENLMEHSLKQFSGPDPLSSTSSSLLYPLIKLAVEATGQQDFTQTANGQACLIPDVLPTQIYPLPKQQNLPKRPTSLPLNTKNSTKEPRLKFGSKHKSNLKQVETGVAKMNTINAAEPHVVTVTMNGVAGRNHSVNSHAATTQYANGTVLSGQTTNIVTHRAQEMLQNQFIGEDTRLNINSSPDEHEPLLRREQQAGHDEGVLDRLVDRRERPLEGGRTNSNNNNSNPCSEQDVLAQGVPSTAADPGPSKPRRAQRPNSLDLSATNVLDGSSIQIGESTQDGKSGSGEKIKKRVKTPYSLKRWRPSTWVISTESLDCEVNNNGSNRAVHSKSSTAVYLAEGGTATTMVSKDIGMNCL

BMP type I receptor ALK3 = settings: C2C12 cells; read-out: IC50, transcription activity of BMP type I receptor ALK3
ALK1 = ALK1 (Homo sapiens, UniProt P37023)
Sequence of ALK1 (P37023 22-503, species assumed): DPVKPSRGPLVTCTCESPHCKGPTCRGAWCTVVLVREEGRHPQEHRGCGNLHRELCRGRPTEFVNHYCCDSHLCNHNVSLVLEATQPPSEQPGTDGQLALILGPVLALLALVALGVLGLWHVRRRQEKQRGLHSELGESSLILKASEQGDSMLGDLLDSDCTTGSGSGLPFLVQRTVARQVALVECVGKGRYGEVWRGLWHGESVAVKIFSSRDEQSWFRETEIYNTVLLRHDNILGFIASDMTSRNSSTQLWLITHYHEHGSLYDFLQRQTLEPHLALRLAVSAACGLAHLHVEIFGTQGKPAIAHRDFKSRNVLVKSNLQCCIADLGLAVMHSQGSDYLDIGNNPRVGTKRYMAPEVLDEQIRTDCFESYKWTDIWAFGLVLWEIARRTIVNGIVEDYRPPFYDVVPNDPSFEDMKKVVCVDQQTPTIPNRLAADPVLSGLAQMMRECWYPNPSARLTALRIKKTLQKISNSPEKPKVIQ

ALK6 = ALK6 (Homo sapiens, UniProt O00238)
Sequence of ALK6 (O00238 14-502): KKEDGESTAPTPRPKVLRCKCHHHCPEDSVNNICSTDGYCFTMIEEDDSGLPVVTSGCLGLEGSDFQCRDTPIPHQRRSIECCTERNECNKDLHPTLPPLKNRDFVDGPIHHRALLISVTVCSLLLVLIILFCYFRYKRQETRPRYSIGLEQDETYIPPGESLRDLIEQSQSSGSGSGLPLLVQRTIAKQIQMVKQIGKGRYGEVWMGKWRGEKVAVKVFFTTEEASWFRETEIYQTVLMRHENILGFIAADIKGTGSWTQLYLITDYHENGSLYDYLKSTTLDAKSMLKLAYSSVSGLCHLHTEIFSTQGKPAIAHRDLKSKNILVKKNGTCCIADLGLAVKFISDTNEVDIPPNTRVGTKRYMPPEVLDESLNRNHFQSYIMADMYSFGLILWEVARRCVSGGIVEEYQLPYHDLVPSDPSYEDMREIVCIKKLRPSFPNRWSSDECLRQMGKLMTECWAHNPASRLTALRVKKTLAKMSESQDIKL

ALK7 = target: T2, ALK7 (Homo sapiens, UniProt Q8NER5); settings: qualitative
T2 sequence (Q8NER5 21-493): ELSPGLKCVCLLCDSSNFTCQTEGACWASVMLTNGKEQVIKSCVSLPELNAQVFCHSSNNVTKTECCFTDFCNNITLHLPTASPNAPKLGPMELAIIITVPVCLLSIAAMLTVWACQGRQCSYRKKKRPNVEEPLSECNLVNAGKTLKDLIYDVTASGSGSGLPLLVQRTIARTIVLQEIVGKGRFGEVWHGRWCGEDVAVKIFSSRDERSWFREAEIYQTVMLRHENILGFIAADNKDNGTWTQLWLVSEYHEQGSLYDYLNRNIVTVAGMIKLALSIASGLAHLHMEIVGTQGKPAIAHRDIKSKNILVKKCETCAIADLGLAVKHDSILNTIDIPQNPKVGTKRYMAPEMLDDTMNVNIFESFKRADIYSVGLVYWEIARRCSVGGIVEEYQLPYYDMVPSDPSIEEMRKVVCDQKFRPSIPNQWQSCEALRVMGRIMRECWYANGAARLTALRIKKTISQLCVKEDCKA

ALK4 = target: T3, ALK4 (Homo sapiens, UniProt P36896); settings: ALK4 vs ALK5
T3 sequence (P36896 24-505): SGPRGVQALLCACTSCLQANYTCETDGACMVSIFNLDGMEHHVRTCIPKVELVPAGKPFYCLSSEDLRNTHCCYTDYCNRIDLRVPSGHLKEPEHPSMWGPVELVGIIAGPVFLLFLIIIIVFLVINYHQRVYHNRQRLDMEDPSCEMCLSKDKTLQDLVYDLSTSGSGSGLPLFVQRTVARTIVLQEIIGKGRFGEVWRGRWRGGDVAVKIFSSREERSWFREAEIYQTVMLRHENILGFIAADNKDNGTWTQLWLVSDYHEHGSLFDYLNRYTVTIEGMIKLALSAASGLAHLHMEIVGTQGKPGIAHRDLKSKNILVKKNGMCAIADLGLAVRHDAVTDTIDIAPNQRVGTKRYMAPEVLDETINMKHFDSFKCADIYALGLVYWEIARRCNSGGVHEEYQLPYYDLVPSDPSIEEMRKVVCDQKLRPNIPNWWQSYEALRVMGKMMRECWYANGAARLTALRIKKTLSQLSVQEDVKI

ALK5 = ALK5 (Homo sapiens, UniProt P36897); settings: vs TGF-βRII
Sequence of ALK5 (P36897 34-503, species assumed): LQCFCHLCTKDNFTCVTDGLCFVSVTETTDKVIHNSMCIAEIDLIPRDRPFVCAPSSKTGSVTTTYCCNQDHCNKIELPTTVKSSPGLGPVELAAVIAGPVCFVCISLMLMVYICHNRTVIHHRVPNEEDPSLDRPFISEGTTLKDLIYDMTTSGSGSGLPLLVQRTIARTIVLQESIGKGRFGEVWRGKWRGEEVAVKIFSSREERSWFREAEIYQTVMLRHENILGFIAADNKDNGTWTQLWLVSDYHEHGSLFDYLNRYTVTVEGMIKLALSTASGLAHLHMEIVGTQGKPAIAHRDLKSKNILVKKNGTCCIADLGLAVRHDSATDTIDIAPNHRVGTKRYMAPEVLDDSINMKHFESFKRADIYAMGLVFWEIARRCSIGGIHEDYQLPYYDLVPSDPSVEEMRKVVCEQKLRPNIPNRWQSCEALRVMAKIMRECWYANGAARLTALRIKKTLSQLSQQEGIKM

Sequence of GSK-3β (P49841 whole entry): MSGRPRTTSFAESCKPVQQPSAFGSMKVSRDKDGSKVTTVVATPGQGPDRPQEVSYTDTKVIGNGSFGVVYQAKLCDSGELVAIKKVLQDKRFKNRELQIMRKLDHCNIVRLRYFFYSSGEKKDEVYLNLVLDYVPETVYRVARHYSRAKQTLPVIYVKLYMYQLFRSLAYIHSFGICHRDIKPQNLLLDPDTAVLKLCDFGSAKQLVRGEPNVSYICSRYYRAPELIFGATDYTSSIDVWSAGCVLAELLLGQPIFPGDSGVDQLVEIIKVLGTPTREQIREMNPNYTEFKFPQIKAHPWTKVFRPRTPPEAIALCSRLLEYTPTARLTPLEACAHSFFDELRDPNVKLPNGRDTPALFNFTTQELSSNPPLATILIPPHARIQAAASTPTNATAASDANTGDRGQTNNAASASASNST
Sequence of ALK2 (Q04771 21-509): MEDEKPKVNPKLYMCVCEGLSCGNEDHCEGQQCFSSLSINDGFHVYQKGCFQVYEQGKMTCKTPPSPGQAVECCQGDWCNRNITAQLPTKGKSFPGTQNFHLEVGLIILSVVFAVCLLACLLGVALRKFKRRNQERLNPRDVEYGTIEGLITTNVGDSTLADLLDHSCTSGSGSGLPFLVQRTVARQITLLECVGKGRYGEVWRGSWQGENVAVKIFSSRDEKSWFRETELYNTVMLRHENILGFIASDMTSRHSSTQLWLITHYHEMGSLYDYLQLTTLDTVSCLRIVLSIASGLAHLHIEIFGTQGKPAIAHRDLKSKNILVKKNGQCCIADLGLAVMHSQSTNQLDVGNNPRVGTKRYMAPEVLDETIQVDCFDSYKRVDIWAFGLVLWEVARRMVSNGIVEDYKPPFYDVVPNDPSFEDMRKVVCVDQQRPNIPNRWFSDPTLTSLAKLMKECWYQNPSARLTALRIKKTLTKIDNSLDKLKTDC

Compound: Cc1cnc(-c2cnc(NCCNc3ccc(C#N)cn3)nc2-c2ccc(Cl)cc2Cl)[nH]1 [CHIR-99021]
inhibition of GSK-3 stronger than inhibition on CDC2, ERK2 and other kinases (GSK-3β): 500 fold

IC50 (ALK2): 108 nM
Compound: CC(C)Oc1ccc(-c2cnc3c(-c4ccnc5ccccc45)cnn3c2)cc1 [DMH1]
inhibiting activity on AMPK, ALK5, KDR (VEGFR-2) and PDGFR [1]: no inhibiting activity

Compound: O=C(NC1CCOCC1)c1ccc(-c2cc(-c3c[nH]nc3-c3ccccn3)ccn2)cc1 [GW788388]
inhibition of TGF-β type II receptor and activin type II receptor [2]: also inhibiting | inhibition of BMP type II receptor (BMP type II receptor): not BMP type II receptor

Compound: c1ccc2c(-c3cnn4cc(-c5ccc(N6CCNCC6)cc5)cnc34)ccnc2c1 [LDN-193189]
selectivity on BMP higher than on TGF-β (BMP type I receptor ALK2; BMP vs TGF-β): 200 fold | IC50 (BMP type I receptor ALK2; C2C12 cells, read-out: IC50, transcription activity of BMP type I receptor ALK2): 5 nM | IC50 (BMP type I receptor ALK3): 30 nM

IC50 (ALK1): 1.8 nM | IC50 (ALK6): 6.4 nM
Compound: COc1cc(-c2cc(-c3cccc(O)c3)cnc2N)cc(OC)c1OC [Medium K02288]
inhibiting activity on other ALK5 (3, 4, 5) and ActRIIa (and ActRIIa): slight inhibiting activity

Compound: Cc1cccc(-c2[nH]c(C(C)(C)C)nc2-c2ccc3c(c2)OCO3)n1 [SB505124]
inhibition of ALK7 (ALK7): also inhibiting ALK7 | inhibition of ALK1, 2, 3 or 6 (ALK1, 2, 3 or 6): not ALK1, 2, 3 or 6

Compound: Cc1cccc(-c2[nH]c(C(C)(C)C)nc2-c2ccc3nccnc3c2)n1 [SB525334]
effect on ALK4 lower than on ALK5 (ALK4): 4 fold | activity to ALK2, 3 and 6 (ALK2, 3 and 6): no activity

selectivity for TGF-βRI (ALK5) higher than on TGF-βRII (ALK5): more than 100 fold
Compound: SD-208
